Reference: US11498903B2 (BRISTOL-MYERS SQUIBB COMPANY, priority 2017, dated 2022)
Read-outs that look alike come from different tables or passages of the source.

Biological target: T1, human APJ receptor (Homo sapiens, UniProt P35414)
T1 construct: expressed in transfected cells
T1 sequence (P35414 1-380): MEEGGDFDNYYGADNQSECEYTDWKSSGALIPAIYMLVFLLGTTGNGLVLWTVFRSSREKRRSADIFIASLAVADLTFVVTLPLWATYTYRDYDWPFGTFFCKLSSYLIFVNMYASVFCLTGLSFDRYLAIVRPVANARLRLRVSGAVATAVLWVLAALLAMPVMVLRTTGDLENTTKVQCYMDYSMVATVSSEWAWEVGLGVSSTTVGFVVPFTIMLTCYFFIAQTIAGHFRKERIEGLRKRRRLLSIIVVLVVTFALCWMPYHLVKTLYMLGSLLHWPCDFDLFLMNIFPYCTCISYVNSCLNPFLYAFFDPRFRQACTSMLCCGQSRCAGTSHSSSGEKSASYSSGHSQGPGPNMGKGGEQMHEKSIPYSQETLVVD
Assay: Intracellular cAMP accumulation assay (APJ hcAMP, HTRF)
Assay type: cell-based
Details: HEK293 cells stably expressing human APJ receptor
Method in brief: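 HEK293 cells stably expressing human APJ, 5,000/well, incubated 30 min at room temperature with compound plus […] and 2 μM forskolin. cAMP read by HTRF against a cAMP standard curve; EC50 from variable-slope sigmoidal fit, Ymax as % of (Pyr1)apelin-13 inhibition.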

[1] = Table 1, inhibition of forskolin-mediated cAMP production, read-out: APJ hcAMP EC50
[2] = Table 2, read-out: APJ cAMP Human EC50

| Compound | EC50 [1] | EC50 [2] |
| --- | --- | --- |
| CCC[C@@H](NC(=O)c1ccc(-c2cc(F)ccc2-c2nc3cc(C(C)(C)C)ccc3[nH]2)c(C(=O)O)c1)c1ccccc1 [Example 39, 2′-(5-tert-butyl-1H-1,3-benzodiazol-2-yl)-5′-fluoro-4-{[(1R)-1-phenylbutyl]carbamoyl}-[1,1′-biphenyl]-2-carboxylic acid] | 10 to 100 nM | 10 to 100 nM |
| CCC[C@@H](NC(=O)c1ccc(-c2ccc(F)cc2-c2nc3cc(C(C)(C)C)ccc3[nH]2)c(C(=O)O)c1)c1ccccc1 [Example 40, 2′-(5-tert-butyl-1H-1,3-benzodiazol-2-yl)-4′-fluoro-4-{[(1R)-1-phenylbutyl]carbamoyl}-[1,1′-biphenyl]-2-carboxylic acid] | 10 to 100 nM | 10 to 100 nM |
| CCC[C@@H](NC(=O)c1ccc(-c2cc(Cl)ccc2-c2nc3ccccc3[nH]2)c(C(=O)NOC)c1)c1ccccc1 [Example 41, 2′-(1H-1,3-benzodiazol-2-yl)-5′-chloro-N2-methoxy-N4-[(1R)-1-phenylbutyl]-[1,1′-biphenyl]-2,4-dicarboxamide] | 10 to 100 nM | 10 to 100 nM |
| CCC[C@@H](NC(=O)c1ccc(-c2cc(Cl)ccc2-c2nc3ccccc3[nH]2)c(C(=O)NO)c1)c1ccccc1 [Example 42, 2′-(1H-1,3-benzodiazol-2-yl)-5′-chloro-N2-hydroxy-N4-[(1R)-1-phenylbutyl]-[1,1′-biphenyl]-2,4-dicarboxamide] | 10 to 100 nM | 10 to 100 nM |
| CCC[C@@H](NC(=O)c1ccc(-c2cc(Cl)ccc2-c2nc3ccccc3[nH]2)c(C(=O)OC)c1)c1ccccc1 [Example 43, methyl 2′-(1H-1,3-benzodiazol-2-yl)-5′-chloro-4-{[(1R)-1-phenylbutyl]carbamoyl}-[1,1′-biphenyl]-2-carboxylate] | 101 to 500 nM | 101 to 500 nM |
| CCC[C@@H](NC(=O)c1ccc(-c2cc(Cl)ccc2-c2nc3ccccc3[nH]2)c(C(=O)NS(C)(=O)=O)c1)c1ccccc1 [Example 44, 2′-(1H-1,3-benzodiazol-2-yl)-5′-chloro-N2-methanesulfonyl-N4-[(1R)-1-phenylbutyl]-[1,1′-biphenyl]-2,4-dicarboxamide] | 10 to 100 nM | 10 to 100 nM |
| CCC[C@@H](NC(=O)c1ccc(-c2cc(Cl)ccc2-c2nc3ccccc3[nH]2)c(C(=O)NS(=O)(=O)c2ccc(Cl)cc2)c1)c1ccccc1 [Example 45, 2′-(1H-1,3-benzodiazol-2-yl)-5′-chloro-N2-(4-chlorobenzenesulfonyl)-N4-[(1R)-1-phenylbutyl]-[1,1′-biphenyl]-2,4-dicarboxamide] | 101 to 500 nM | 101 to 500 nM |
| CCC[C@@H](NC(=O)c1ccc(-c2cc(Cl)ccc2-c2nc3cc(Cl)ccc3[nH]2)c(C(=O)O)c1)c1ccccc1 [Example 47, 5′-chloro-2′-(5-chloro-1H-1,3-benzodiazol-2-yl)-4-{[(1R)-1-phenylbutyl]carbamoyl}-[1,1′-biphenyl]-2-carboxylicacid] | < 10 nM | < 10 nM |
| CCC[C@@H](NC(=O)c1ccc(-c2cc(Cl)ccc2-c2nc3cc(C(C)C)ccc3[nH]2)c(C(=O)O)c1)c1ccccc1 [Example 48, 5′-chloro-4-{[(1R)-1-phenylbutyl]carbamoyl}-2′-[5-(propan-2-yl)-1H-1,3-benzodiazol-2-yl]-[1,1′-biphenyl]-2-carboxylic acid] | < 10 nM | < 10 nM |
| CCC[C@@H](NC(=O)c1ccc(-c2cc(Cl)ccc2-c2nc3cccc(C)c3[nH]2)c(C(=O)O)c1)c1ccccc1 [Example 49, 5′-chloro-2,-(4-methyl-1H-1,3-benzodiazol-2-yl)-4-{[(1R)-1-phenylbutyl]carbamoyl}-[1,1′-biphenyl]-2-carboxylic acid] | 10 to 100 nM | 10 to 100 nM |
| CCC[C@@H](NC(=O)c1ccc(-c2cc(Cl)ccc2-c2nc(C)c(C)[nH]2)c(C(=O)O)c1)c1ccccc1 [Example 50, 5′-chloro-2′-(4,5-dimethyl-1H-imidazol-2-yl)-4-{[(1R)-1-phenylbutyl]carbamoyl}-[1,1′-biphenyl]-2-carboxylic acid] | 10 to 100 nM | 10 to 100 nM |
| CCC[C@@H](NC(=O)c1ccc(-c2cc(C(F)(F)F)ccc2-c2nc3ccccc3[nH]2)c(C(=O)O)c1)c1ccccc1 [Example 51, 2′-(1H-1,3-benzodiazol-2-yl)-4-{[(1R)-1-phenylbutyl]carbamoyl}-5′-(trifluoromethyl)-[1,1′-biphenyl]-2-carboxylic acid] | < 10 nM | < 10 nM |
| CCC[C@@H](NC(=O)c1ccc(-c2ccccc2-c2nc3ccccc3[nH]2)c(C(=O)O)c1)c1ccccc1 [Example 52, 2′-(1H-1,3-benzodiazol-2-yl)-4-{[(1R)-1-phenylbutyl]carbamoyl}-[1,1′-biphenyl]-2-carboxylic acid] | < 10 nM | < 10 nM |
| CCC[C@@H](NC(=O)c1ccc(-c2cc(OC)ccc2-c2nc3ccccc3[nH]2)c(C(=O)O)c1)c1ccccc1 [Example 53, 2′-(1H-1,3-benzodiazol-2-yl)-5′-methoxy-4-{[(1R)-1-phenylbutyl]carbamoyl}-[1,1′-biphenyl]-2-carboxylic acid] | < 10 nM | < 10 nM |
| CCC[C@@H](NC(=O)c1ccc(-c2ccc(Cl)cc2-c2nc3ccccc3[nH]2)c(C(=O)O)c1)c1ccccc1 [Example 54, 2′-(1H-1,3-benzodiazol-2-yl)-4′-chloro-4-{[(1R)-1-phenylbutyl]carbamoyl}-[1,1′-biphenyl]-2-carboxylic acid] | 10 to 100 nM | 10 to 100 nM |
| CCC[C@@H](NC(=O)c1ccc(-c2cccc(F)c2-c2nc3ccccc3[nH]2)c(C(=O)O)c1)c1ccccc1 [Example 55, 2′-(1H-1,3-benzodiazol-2-yl)-3′-fluoro-4-{[(1R)-1-phenylbutyl]carbamoyl}-[1,1′-biphenyl]-2-carboxylic acid] | 101 to 500 nM | 101 to 500 nM |
| CCC[C@@H](NC(=O)c1ccc(-c2cc(C(F)(F)F)ccc2-c2nc3cc(OC)ccc3[nH]2)c(C(=O)O)c1)c1ccccc1 [Example 56, 2′-(5-methoxy-1H-1,3-benzodiazol-2-yl)-4-{[(1R)-1-phenylbutyl]carbamoyl}-5′-(trifluoromethyl)-[1,1′-biphenyl]-2-carboxylic acid] | < 10 nM | < 10 nM |
| CCC[C@@H](NC(=O)c1ccc(-c2ccc(Cl)cc2-c2nc3cc(OC)ccc3[nH]2)c(C(=O)O)c1)c1ccccc1 [Example 57, 4′-chloro-2′-(5-methoxy-1H-1,3-benzodiazol-2-yl)-4-{[(1R)-1-phenylbutyl]carbamoyl}-[1,1′-biphenyl]-2-carboxylic acid] | < 10 nM | < 10 nM |
| CCC[C@@H](NC(=O)c1ccc(-c2ccccc2-c2nc3cc(OC)ccc3[nH]2)c(C(=O)O)c1)c1ccccc1 [Example 58, 2′-(5-methoxy-1H-1,3-benzodiazol-2-yl)-4-{[(1R)-1-phenylbutyl]carbamoyl}-[1,1′-biphenyl]-2-carboxylic acid] | < 10 nM | < 10 nM |
| CCC[C@@H](NC(=O)c1ccc(-c2cc(OC)ccc2-c2nc3cc(OC)ccc3[nH]2)c(C(=O)O)c1)c1ccccc1 [Example 59, 5′-methoxy-2′-(5-methoxy-1H-1,3-benzodiazol-2-yl)-4-{[(1R)-1-phenylbutyl]carbamoyl}-[1,1′-biphenyl]-2-carboxylic acid] | < 10 nM | < 10 nM |
| CCC[C@@H](NC(=O)c1ccc(-c2cc(C(F)(F)F)ccc2-c2nc3cc(C(C)(C)C)ccc3[nH]2)c(C(=O)O)c1)c1ccccc1 [Example 60, 2′-(5-tert-butyl-1H-1,3-benzodiazol-2-yl)-4-{[(1R)-1-phenylbutyl]carbamoyl}-5′-(trifluoromethyl)-[1,1′-biphenyl]-2-carboxylic acid] | < 10 nM | < 10 nM |
| CCC[C@@H](NC(=O)c1ccc(-c2cc(OC)ccc2-c2nc3cc(C(C)(C)C)ccc3[nH]2)c(C(=O)O)c1)c1ccccc1 [Example 61, 2′-(5-tert-butyl-1H-1,3-benzodiazol-2-yl)-5′-methoxy-4-{[(1R)-1-phenylbutyl]carbamoyl}-[1,1′-biphenyl]-2-carboxylic acid] | < 10 nM | < 10 nM |
| CCC[C@@H](NC(=O)c1ccc(-c2ccccc2-c2nc3cc(C(C)(C)C)ccc3[nH]2)c(C(=O)O)c1)c1ccccc1 [Example 62, 2′-(5-tert-butyl-1H-1,3-benzodiazol-2-yl)-4-{[(1R)-1-phenylbutyl]carbamoyl}-[1,1′-biphenyl]-2-carboxylic acid] | 10 to 100 nM | < 10 nM |
| CCC[C@@H](NC(=O)c1ccc(-c2ccc(Cl)cc2-c2nc3cc(C(C)(C)C)ccc3[nH]2)c(C(=O)O)c1)c1ccccc1 [Example 63, 2′-(5-tert-butyl-1H-1,3-benzodiazol-2-yl)-4′-chloro-4-{[(1R)-1-phenylbutyl]carbamoyl}-[1,1′-biphenyl]-2-carboxylic acid] | 10 to 100 nM | 10 to 100 nM |
| COC[C@@H](NC(=O)c1ccc(-c2ccccc2-c2nc3cc(OC)ccc3[nH]2)c(C(=O)O)c1)c1ccccc1 [Example 64, 4-{[(1S)-2-methoxy-1-phenylethyl]carbamoyl}-2′-(5-methoxy-1H-1,3-benzodiazol-2-yl)-[1,1′-biphenyl]-2-carboxylic acid] | < 10 nM | < 10 nM |
